Results: US20050020671A1, “Pharmaceutical formulation” (priority 2001, published 2005)
Counter-ions that a name gives are not always drawn.

Test: chemical compatibility of ranitidine hydrochloride and acetylsalicylic acid in contact
Type: physicochemical
Details: the two actives in physical contact; degradation products form, reaction manifest in a matter of days
Text: British Patent No 2,105,193 discloses pharmaceutical compositions comprising a systemic non-steroidal anti-inflammatory drug and ranitidine or a physiologically acceptable salt thereof. […] These two active ingredients react chemically with each other to produce degradation products. The reaction becomes manifest in a matter of days and implies a serious stability problem for pharmaceutical compositions containing both active ingredients.

Question: With `CNC(=C[N+](=O)[O-])NCCSCc1ccc(CN(C)C)o1` [ranitidine hydrochloride, N-[2-[[[5-(dimethylamino)methyl]-2-furanyl]methyl]thio]ethyl-N′-methyl-2-nitro-1,1-ethanediamine] as the compound, how does the “chemical compatibility with acetylsalicylic acid” value read?
Answer: The value was “clear chemical incompatibility”.
